From US9440926B2, “Antiviral compounds and methods” (Biotron Limited, priority 2005, dated 2016)
pIC50: −log10 of the molar value.

Experiments:
Format in all cases: cell-based
[1] = Cytotoxicity to cells in the viral inhibition assay (MTT assay); conditions: human, primary human macrophages, additional compounds, same assay system, MTT, read-out: TC50 (the source's name)
Description: The toxicity of test compounds to cells in the viral inhibition assay was determined using the MTT assay (Pauwels R, et al. (1988); D'Cruz O J et al. (1999); Joo H. (2003)). This method utilises Thiazolyl Blue (MTT), which is added to the cell culture (100 ug/well), and incubated for 4-5 hours whilst the live, metabolically active cells convert the chemical to its purple coloured metabolite, which forms intracellular crystals. The purple colour is measured colourimetrically (570-590 nm) once cells have been permeabilised using acidified isopropanol containing 10% triton X-100. The most intense colour development occurs in wells where the metabolising cells are most numerous. […] Those values were estimated manually from the Percentage Viability vs Concentration dose response curves (FIG. 1). The compound toxicity to cells in culture was taken into account in inhibition experiments and in separate experiments involving increased concentrations of compound. TC50 values were estimated in separate experiments (not shown) where concentrations of compound were greater.

Den M = molecular target: T1, Den M (Dengue virus type 1, UniProt P33478); experiment: Bacterial bioassay, Den M; design: scale not given here; conditions: mean bacterial bioassay score; M protein of Dengue virus
T1 construct: expressed in transfected cells
T1 sequence (P33478 206-280): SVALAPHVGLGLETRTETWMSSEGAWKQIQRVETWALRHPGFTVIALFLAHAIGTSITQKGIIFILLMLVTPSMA
Excerpt: (§1) The bacterial bioassay method used in the present example to test the anti-viral activity of the compounds against different viral targets was described in detail in PCT/2004/000866, incorporated in its entirety herein by reference. Vpu, p7 and M referred to in the table are small membrane proteins encoded by HIV, HCV and Dengue viruses, respectively, which have functional activities supporting viral growth and/or replication.

HIV-1 strain Ba-L = experiment: HIV-1 Ba-L growth inhibition in primary macrophages (p24 ELISA); conditions: Human immunodeficiency virus 1, BAL, Primary macrophage; additional compounds, same assay system (HIV-1Ba-L, primary macrophages), estimated from dose response curves; read-out: Estimated IC50
Description: The inhibition specifically of HIV-1 growth by the compounds of the invention was tested in primary macrophages in vitro using a method similar to that used to assess antibody neutralization (VanCott T C et al (1999)). In the present case, the laboratory adapted HIV-1 strain Ba-L was used, which is known to infect macrophages.
Peripheral Blood Mononuclear Cells (PBMC) were prepared from healthy donors using buffy-coat packs obtained from the Australian Red Cross Blood Service (ARCBS). Blood was received the day following donation, and had been depleted of serum and platelets, leaving a small volume (less than 100 mL) of concentrated leukocytes.
Leukocytes were separated from blood cells and granulocytes by density gradient centrifugation (Ficoll Paque) and washed extensively in PBS^− (without Ca/Mg) to remove platelets. Recovered cells were allowed to adhere to plastic tissue culture flasks (Becton Dickinson) for 2 hr, 37° C., 5% CO2, in media (DMEM (high)/10% AB serum/50 ug/mL gentamicin/2 mM L-glutamine) during which time the myeloid cells formed an adherent monolayer leaving lymphocytes unattached.
Non-adherent lymphocytes were removed by washing with warm PBS^+ (with Ca/Mg) and were generally discarded. In some cases those cells were recovered and frozen in media/10% DMSO for use in viral stock infections. The adherent monocytes were recovered by scraping gently with a plastic cell scraper. The myeloid cells were then plated into 96-well plates at a cell concentration of 1.5×10^6/mL, and allowed to fully differentiate over a period of 14 days.
Macrophages were allowed to differentiate over a 14 day period, with media changes as required. On day 14, cells were infected in the presence of decreasing concentrations of BIT compounds over a range 0-10 μM. Samples of 25 μL culture supernatants were removed from each well on day 7 and fresh media plus compound dilution was added.
After 7 days the samples with and without compound were analysed to assess the level of virus present in the wells, using a p24 ELISA (Innotest). Virus levels in samples were converted to “percentage of control virus growth” values based on the controls (containing no compound). From that dose response curve (example FIG. 1) the IC50 was calculated and used as a measure of compound anti-HIV activity.

HCV p7 = molecular target: T2, HCV p7 (Hepatitis C virus genotype 1a, UniProt P27958); experiment: Bacterial bioassay, HCV p7; design: scale not given here; conditions: mean bacterial bioassay score; p7 of HCV
T2 construct: expressed in transfected cells
T2 sequence (P27958 747-809): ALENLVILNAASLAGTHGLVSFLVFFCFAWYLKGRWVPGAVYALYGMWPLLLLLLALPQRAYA
Excerpt: as §1

Vpu = molecular target: T3, Vpu (Human immunodeficiency virus type 1 group M subtype B, UniProt P05919); experiment: Bacterial bioassay, Vpu; conditions: mean bacterial bioassay score; Vpu of HIV
T3 construct: expressed in transfected cells
T3 sequence (P05919 whole entry): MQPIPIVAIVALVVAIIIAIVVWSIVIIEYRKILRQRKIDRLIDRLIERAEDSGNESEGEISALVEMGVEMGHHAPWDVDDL
Excerpt: as §1

SMILES | CC50 [1] | Average Bacterial Assay Score, Den M (Den M) | pIC50 (HIV-1 strain Ba-L) | Average Bacterial Assay Score, HCV p7 (HCV p7) | Average Bacterial Assay Score, Vpu (Vpu)
N=C(N)NC(=O)c1ccc2c(-c3ccccc3)cccc2c1 [BIT307, (5-phenyl-2-napthoyl)guanidine] | 10 to 50 µM | 2.40 | > 6.20 | 0.08 | 0.12
N=C(N)NC(=O)c1ccc2c(-c3cccs3)cccc2c1 [BIT308, (5-(thien-2-yl)-2-napthoyl)guanidine] | 10 to 50 µM | 2.40 | > 6.20 | 0.08 | 0.45
Cc1nn(C)c(C)c1-c1cccc2cc(C(=O)NC(=N)N)ccc12 [BIT309, (5-(1,3,5-trimethylpyrazol-4-yl)-2-napthoyl)guanidine] | > 50 µM | 0.00 | < 5.00 | 0.00 | 0.12
CC(C)Cn1cc(-c2cccc3cc(C(=O)NC(=N)N)ccc23)cn1 [BIT310, (5-(1-isobutyl-1H-pyrazol-4-yl)-2-napthoyl)guanidine] | 10 to 50 µM | 1.60 | > 5.60 | 0.00 | 0.00
N=C(N)NC(=O)c1ccc2c(-c3ccoc3)cccc2c1 [BIT311, (5-(3-furyl)-2-napthoyl)guanidine] | 10 to 50 µM | 1.60 | > 6.20 | 0.42 | 0.42
N=C(N)NC(=O)c1ccc2c(C3CC3)cccc2c1 [BIT312, (5-cyclopropyl-2-napthoyl)guanidine] | 10 to 50 µM | 2.25 | > 6.20 | 0.80 | 0.50
N=C(N)NC(=O)c1ccc2c(Cl)cccc2c1 [BIT313, (5-chloro-2-napthoyl)guanidine] | 10 to 50 µM | 3.00 | > 5.60 | 1.30 | 0.30
